Results on 1 compound are retold here after ChEMBL document CHEMBL1141745, “New Sesquiterpene Lactones from Illicium floridanum” (J Nat Prod, 1998).

A short description of this series: Neurotoxicity against ip dosed mouse. The series is classed as toxicity, organism-based. As to conditions: in vivo.

Take `C[C@@H]1C[C@@H](O)[C@@]2(O)[C@@]13C[C@@H](OC(=O)[C@H]3O)[C@](C)(O)[C@@]21COC1=O` [ANISATIN]: the LD50 stood at 1 mg/kg.
